# Reference: US10745360B2, “Quinoxaline compounds, method for preparing the same and use thereof” (Development Center for Biotechnology, priority 2014, dated 2020)
# Where two headings read alike, the source gives them in different places.
# Key:
# B-Raf kinase = target: T1, B-Raf kinase (Homo sapiens, UniProt P15056); assay: B-Raf kinase assay ([33P] incorporation into MEK1 K97R); assay type: biochemical; settings: recombinant B-Raf, 8 μM ATP, 30 min, 30° C.; read-out: IC50 ranking against B-Raf kinase
# T1 construct: purchased Upstate Biotechnology
# T1 sequence (P15056 whole entry): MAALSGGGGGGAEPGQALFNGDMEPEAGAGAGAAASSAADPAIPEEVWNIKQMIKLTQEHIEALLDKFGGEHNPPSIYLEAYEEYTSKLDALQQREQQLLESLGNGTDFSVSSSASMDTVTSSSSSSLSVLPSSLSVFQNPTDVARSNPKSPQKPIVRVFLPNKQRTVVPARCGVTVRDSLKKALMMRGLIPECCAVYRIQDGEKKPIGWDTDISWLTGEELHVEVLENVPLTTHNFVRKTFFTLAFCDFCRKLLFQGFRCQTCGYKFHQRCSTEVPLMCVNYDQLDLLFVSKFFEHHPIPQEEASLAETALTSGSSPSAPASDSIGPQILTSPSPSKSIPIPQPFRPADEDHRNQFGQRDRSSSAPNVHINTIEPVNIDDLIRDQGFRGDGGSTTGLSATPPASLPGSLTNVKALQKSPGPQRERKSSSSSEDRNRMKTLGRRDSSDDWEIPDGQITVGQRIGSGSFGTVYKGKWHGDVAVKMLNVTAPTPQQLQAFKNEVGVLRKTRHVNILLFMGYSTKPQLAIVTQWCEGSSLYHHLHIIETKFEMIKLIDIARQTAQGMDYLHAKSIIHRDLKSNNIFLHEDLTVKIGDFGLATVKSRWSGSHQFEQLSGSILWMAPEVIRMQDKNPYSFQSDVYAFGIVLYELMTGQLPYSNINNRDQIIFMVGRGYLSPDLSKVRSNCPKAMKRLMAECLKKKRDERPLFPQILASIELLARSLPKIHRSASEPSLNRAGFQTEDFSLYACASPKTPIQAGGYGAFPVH
# Procedure: Inhibition of kinase activity by a test compound disclosed herein was estimated by quantifying the amount of [^33P] incorporation of a substrate in the presence of the test compound. Standard assay conditions were 5 ng of recombinant B-Raf kinase (Upstate Biotechnology) with 500 ng MEK1(Map-erk kinase; K97R) in the assay buffer (8 μM ATP, 0.5 μCi [^33P]ATP (specific activity 3000 Ci/mmol, PerkinElmer), 50 mM Tris/HCl (pH 7.5), and 1 mM EGTA, 1 mM Na3VO4, 1% 2-mercaptoethanol, 0.1% Brij 35, and 0.2 mg/ml BSA) in a final volume of 25 μL. Reactions were incubated at 30° C. for 30 min and stopped by adding 3% phosphoric acid, harvested onto a 96-well GF/B UniFilter (PerkinElmer) using a unifilter harvester (PerkinElmer), and counted with a TopCount microplate scintillation counter (PerkinElmer). The IC50 values of inhibitors were determined after carrying out assays at 3-fold serially diluted concentrations of each compound in duplication. The results were analyzed using linear regression software (GraphPad Prism 4; GraphPad Software Inc.).
# B-Raf^V600E kinase = target: T2, B-Raf^V600E kinase (Homo sapiens, UniProt P15056, V600E); assay: B-Raf V600E kinase assay ([33P] incorporation into MEK1 K97R); assay type: biochemical; settings: recombinant B-Raf^V600E, 8 μM ATP, 30 min, 30° C.; read-out: IC50 ranking against B-Raf^V600E kinase
# T2 construct: purchased Upstate Biotechnology
# T2 sequence (P15056 whole entry V600E): as the sequence (P15056 whole entry) above, with V600E counted along it
# Procedure: (§1) Inhibition of kinase activity by a test compound disclosed herein was estimated by quantifying the amount of [^33P] incorporation of a substrate in the presence of the test compound. Standard assay conditions were 5 ng of recombinant B-Raf^V600E kinase (Upstate Biotechnology) with 500 ng MEK1 (K97R) in assay buffer (8 μM ATP, 0.5 μCi [^33P]ATP (specific activity 3000 Ci/mmol, PerkinElmer), 50 mM Tris/HCl (pH 7.5), and 1 mM EGTA, 1 mM Na3VO4, 1% 2-mercaptoethanol, 0.1% Brij 35, and 0.2 mg/ml BSA), and the test compound (diluted with 4% DMSO) or DMSO alone (as a control) in a final volume of 25 μL. Reactions were incubated at 30° C. for 30 min and stopped by adding 3% phosphoric acid, harvested onto a 96-well GF/B UniFilter (PerkinElmer) using a unifilter harvester (PerkinElmer), and counted with a TopCount microplate scintillation counter (PerkinElmer). The IC50 values of inhibitors were determined after carrying out assays at 3-fold serially diluted concentrations of each compound in duplication. The results were analyzed using linear regression software (GraphPad Prism 4; GraphPad Software Inc.).
# C-Raf kinase = target: T3, C-Raf kinase (Homo sapiens, UniProt P04049); assay: C-Raf kinase assay ([33P] incorporation into MEK1 K97R); assay type: biochemical; settings: recombinant C-Raf, 8 μM ATP, 30 min, 30° C.; read-out: IC50 ranking against C-Raf kinase
# T3 construct: purchased Upstate Biotechnology
# T3 sequence (P04049 whole entry): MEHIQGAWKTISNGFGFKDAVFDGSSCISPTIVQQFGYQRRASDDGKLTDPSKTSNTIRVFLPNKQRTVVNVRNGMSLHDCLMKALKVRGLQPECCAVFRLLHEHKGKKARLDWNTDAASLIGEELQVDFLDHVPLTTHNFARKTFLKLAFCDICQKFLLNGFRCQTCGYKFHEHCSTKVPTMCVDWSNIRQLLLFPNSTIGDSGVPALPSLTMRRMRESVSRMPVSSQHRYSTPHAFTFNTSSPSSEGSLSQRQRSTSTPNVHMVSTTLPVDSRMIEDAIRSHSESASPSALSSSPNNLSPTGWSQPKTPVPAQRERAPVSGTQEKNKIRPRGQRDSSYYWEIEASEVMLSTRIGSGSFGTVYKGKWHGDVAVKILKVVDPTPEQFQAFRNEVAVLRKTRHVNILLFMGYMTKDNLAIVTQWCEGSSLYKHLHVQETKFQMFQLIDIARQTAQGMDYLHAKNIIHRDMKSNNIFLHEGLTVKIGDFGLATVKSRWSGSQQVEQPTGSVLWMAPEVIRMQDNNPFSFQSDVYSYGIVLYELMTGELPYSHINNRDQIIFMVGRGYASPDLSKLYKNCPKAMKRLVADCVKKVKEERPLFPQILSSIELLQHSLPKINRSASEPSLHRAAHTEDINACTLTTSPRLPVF
# Procedure: as §1, with “were 2” for “were 5”, “recombinant C-Raf” for “recombinant B-Raf^V600E”, “ng MEK1(K97R)” for “ng MEK1 (K97R)”
# [1] = system: B-Raf^V600E mutant A375 melanoma cell; assay: Cell proliferation assay (CELLTITER 96), A375; assay type: cell-based; settings: Homo sapiens, A-375; A375, 72 hours; read-out: Cytotoxicity (IC50 Ranking) A375 (B-Raf^V600E)
# Procedure: (§2) Inhibition of cell growth by compounds was measured using CELLTITER 96® assay. The cytotoxicity of compounds was evaluated in B-Raf^V600E mutant A375 melanoma cell, B-Raf^V600E mutant COLO205 colon cancer cell, and SK-MEL-2 melanoma cell with wild type B-Raf (B-Raf^wt) and NRASQ^Q61R mutation. A375 and COLO205 cell line were cultured in DMEM containing 10% FCS and incubated at 37° C. in 5% CO2 atmosphere. SK-MEL-2 cell line was cultured in MEM containing 10% FCS and incubated at 37° C. in 5% CO2 atmosphere. A375, COLO205 and SK-MEL-2 cell were seeded into 96-well plates at 2000, 2000, and 4000 cells/well, respectively, and allowed to adhere for overnight. Then, these seeded cells were treated with increasing concentrations of the test compounds and incubated for another 72 hours. At the end of the incubation, CELLTITER 96® Aqueous One Solution Reagent (Promega) was added and incubated for 4 hours. Cell viability was determined by measuring absorbance at 490 nm using EMAX® microplate reader (Molecular Devices).
# (§3) The 50% inhibitory concentration (IC50) value was calculated by plotting the percentage of growth inhibition against the concentration of compound, using GraphPad Prism5 software for curve fitting.
# [2] = system: B-Raf^V600E mutant COLO205 colon cancer cell; assay: Cell proliferation assay (CELLTITER 96), COLO205; assay type: cell-based; settings: Homo sapiens, COLO 205; COLO205, 72 hours; read-out: Cytotoxicity (IC50 Ranking) COLO205 (B-Raf^V600E)
# Procedure: as §2, §3
# [3] = system: SK-MEL-2 melanoma cell with wild type B-Raf (B-Raf^wt) and NRAS^Q61R mutation; assay: Cell proliferation assay (CELLTITER 96), SK-MEL-2; assay type: cell-based; settings: Homo sapiens, SK-MEL-2, 72 hours, read-out: Cytotoxicity (IC50 Ranking) SK-MEL-2 (NRAS^Q61R, B-Raf^wt)
# Procedure: as §2, §3
Structure (SMILES),IC50 (B-Raf kinase) [nM],IC50 (B-Raf^V600E kinase) [nM],IC50 (C-Raf kinase) [nM],IC50 [1] [nM],IC50 [2] [nM],IC50 ([3]; given as bound) [nM],IC50 ([3]; given as class symbol) [nM]
"CCCS(=O)(=O)Nc1ccc(F)c(Nc2ccc3ncc(OC)nc3c2C=O)c1F [compound 29, N-(2,4-difluoro-3-(5-formyl-3-methoxyquinoxalin-6-ylamino)phenyl)propane-1-sulfonamide]",< 300,< 300,< 300,< 300,< 300,> 10000,–
"CCCS(=O)(=O)Nc1ccc(F)c(Nc2ccc3ncc(OC)nc3c2C(=O)O)c1F [compound 30, 6-(2,6-difluoro-3-(propylsulfonamido)phenylamino)-3-methoxyquinoxaline-5-carboxylic acid]",300 to 1000,300 to 1000,300 to 1000,1000 to 10000,1000 to 10000,> 10000,–
"CCCS(=O)(=O)Nc1ccc(F)c(Nc2ccc3ncc(OC)nc3c2C(=O)OC)c1F [compound 31, methyl 6-(2,6-difluoro-3-(propylsulfonamido)phenylamino)-3-methoxyquinoxaline-5-carboxylate]",< 300,< 300,< 300,300 to 1000,300 to 1000,> 10000,–
"N#Cc1c(Nc2c(F)ccc(NS(=O)(=O)CCCF)c2F)ccc2ncc(N3CCOCC3)nc12 [compound 33, N-(3-(5-cyano-3-morpholinoquinoxalin-6-ylamino)-2,4-difluorophenyl)-3-fluoropropane-1-sulfonamide]",< 300,< 300,< 300,< 300,< 300,–,1000 to 10000
"CCOc1cnc2ccc(Nc3c(F)ccc(NS(=O)(=O)CCCF)c3F)c(C#N)c2n1 [compound 34, N-(3-(5-cyano-3-ethoxyquinoxalin-6-ylamino)-2,4-difluorophenyl)-3-fluoropropane-1-sulfonamide]",< 300,< 300,< 300,< 300,< 300,> 10000,–
"COc1cnc2ccc(Nc3cc(NS(=O)(=O)c4ccccc4)ccc3F)c(C#N)c2n1 [compound 35, N-(3-(5-cyano-3-methoxyquinoxalin-6-ylamino)-4-fluorophenyl)benzenesulfonamide]",< 300,< 300,< 300,< 300,< 300,> 10000,–
"CCCS(=O)(=O)Nc1ccc(F)c(Nc2ccc3ncc(OCC)nc3c2C#N)c1 [compound 36, N-(3-(5-cyano-3-ethoxyquinoxalin-6-ylamino)-4-fluorophenyl)propane-1-sulfonamide]",< 300,< 300,< 300,< 300,< 300,> 10000,–
"CN(C)c1cnc2ccc(Nc3cc(NS(=O)(=O)c4ccccc4)ccc3F)c(C#N)c2n1 [compound 37, N-(3-(5-cyano-3-(dimethylamino)quinoxalin-6-ylamino)-4-fluorophenyl)benzenesulfonamide]",< 300,< 300,< 300,1000 to 10000,1000 to 10000,> 10000,–
"CCCS(=O)(=O)Nc1cccc(Nc2ccc3ncc(N4CCOCC4)nc3c2C#N)c1C [compound 38, N-(3-(5-cyano-3-morpholinoquinoxalin-6-ylamino)-2-methylphenyl)propane-1-sulfonamide]",< 300,< 300,< 300,< 300,< 300,> 10000,–
"CCCS(=O)(=O)Nc1ccc(C)c(Nc2ccc3ncc(N4CCOCC4)nc3c2C#N)c1 [compound 39, N-(3-(5-cyano-3-morpholinoquinoxalin-6-ylamino)-4-methylphenyl)propane-1-sulfonamide]",300 to 1000,300 to 1000,1000 to 10000,1000 to 10000,1000 to 10000,> 10000,–
"CCCS(=O)(=O)Nc1ccc(C)c(Nc2ccc3ncc(OC)nc3c2C#N)c1 [compound 40, N-(3-(5-cyano-3-methoxyquinoxalin-6-ylamino)-4-methylphenyl)propane-1-sulfonamide]",300 to 1000,300 to 1000,300 to 1000,1000 to 10000,1000 to 10000,> 10000,–
"COc1cnc2ccc(Nc3cc(NS(C)(=O)=O)ccc3F)c(C#N)c2n1 [compound 41, N-(3-(5-cyano-3-methoxyquinoxalin-6-ylamino)-4-fluorophenyl)methanesulfonamide]",1000 to 10000,1000 to 10000,1000 to 10000,1000 to 10000,1000 to 10000,> 10000,–
"CCCS(=O)(=O)N(CC)c1ccc(F)c(Nc2ccc3ncc(OC)nc3c2C#N)c1F [compound 42, N-(3-(5-cyano-3-methoxyquinoxalin-6-ylamino)-2,4-difluorophenyl)-N-ethylpropane-1-sulfonamide]",< 300,< 300,< 300,< 300,< 300,> 10000,–
"CCCS(=O)(=O)N(C)c1ccc(F)c(Nc2ccc3ncc(OC)nc3c2C#N)c1F [compound 43, N-(3-(5-cyano-3-methoxyquinoxalin-6-ylamino)-2,4-difluorophenyl)-N-methylpropane-1-sulfonamide]",< 300,< 300,< 300,< 300,< 300,> 10000,–
"CCCS(=O)(=O)Nc1cccc(Nc2ccc3ncc(OC)nc3c2C#N)c1C [compound 44, N-(3-(5-cyano-3-methoxyquinoxalin-6-ylamino)-2-methylphenyl)propane-1-sulfonamide]",< 300,300 to 1000,< 300,300 to 1000,300 to 1000,> 10000,–
